These results are taken from publication PMC6199744, “Development of Chemical Proteomics for the Folateome and Analysis of the Kinetoplastid Folateome” (ACS Infectious Diseases, 2018).

Each structure is given as a SMILES string. Like-named read-outs stand apart in the source and are kept apart here.

Type in all cases: binding
The target in assay [1] is T1, HeLa cell extract proteins (Homo sapiens, UniProt P78371).
T1 construct: endogenous in cells; host or cells: HeLa cell extract
T1 sequence (P78371 1-535): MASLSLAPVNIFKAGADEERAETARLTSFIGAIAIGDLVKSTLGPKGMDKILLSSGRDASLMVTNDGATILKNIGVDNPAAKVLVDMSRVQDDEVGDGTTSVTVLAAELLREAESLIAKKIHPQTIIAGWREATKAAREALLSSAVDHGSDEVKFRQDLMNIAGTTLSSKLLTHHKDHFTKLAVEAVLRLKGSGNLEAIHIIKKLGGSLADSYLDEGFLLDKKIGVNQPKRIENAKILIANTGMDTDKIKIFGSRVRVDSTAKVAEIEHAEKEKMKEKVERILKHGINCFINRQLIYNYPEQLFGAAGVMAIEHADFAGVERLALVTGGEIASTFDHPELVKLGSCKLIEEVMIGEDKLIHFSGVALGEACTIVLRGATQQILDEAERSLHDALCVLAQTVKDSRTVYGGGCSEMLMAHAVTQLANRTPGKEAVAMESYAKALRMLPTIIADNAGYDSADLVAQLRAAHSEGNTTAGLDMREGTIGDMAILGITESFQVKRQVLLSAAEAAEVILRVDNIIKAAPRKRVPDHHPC

Assay [2] deals with T2, HeLa cell extract proteins (Homo sapiens, UniProt Q13907).
T2 construct: endogenous in cells; host or cells: HeLa cell extract
T2 sequence (Q13907 whole entry): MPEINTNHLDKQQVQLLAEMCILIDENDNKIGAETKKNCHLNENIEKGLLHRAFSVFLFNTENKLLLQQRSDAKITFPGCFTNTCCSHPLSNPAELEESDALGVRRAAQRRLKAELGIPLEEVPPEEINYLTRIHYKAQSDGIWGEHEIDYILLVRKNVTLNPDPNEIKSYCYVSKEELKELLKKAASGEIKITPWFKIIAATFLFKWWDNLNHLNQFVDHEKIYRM

In assay [3] the target is T3, HeLa cell extract proteins (Homo sapiens, UniProt Q8TEM1).
T3 construct: endogenous in cells; host or cells: HeLa cell extract
T3 sequence (Q8TEM1 27-1887): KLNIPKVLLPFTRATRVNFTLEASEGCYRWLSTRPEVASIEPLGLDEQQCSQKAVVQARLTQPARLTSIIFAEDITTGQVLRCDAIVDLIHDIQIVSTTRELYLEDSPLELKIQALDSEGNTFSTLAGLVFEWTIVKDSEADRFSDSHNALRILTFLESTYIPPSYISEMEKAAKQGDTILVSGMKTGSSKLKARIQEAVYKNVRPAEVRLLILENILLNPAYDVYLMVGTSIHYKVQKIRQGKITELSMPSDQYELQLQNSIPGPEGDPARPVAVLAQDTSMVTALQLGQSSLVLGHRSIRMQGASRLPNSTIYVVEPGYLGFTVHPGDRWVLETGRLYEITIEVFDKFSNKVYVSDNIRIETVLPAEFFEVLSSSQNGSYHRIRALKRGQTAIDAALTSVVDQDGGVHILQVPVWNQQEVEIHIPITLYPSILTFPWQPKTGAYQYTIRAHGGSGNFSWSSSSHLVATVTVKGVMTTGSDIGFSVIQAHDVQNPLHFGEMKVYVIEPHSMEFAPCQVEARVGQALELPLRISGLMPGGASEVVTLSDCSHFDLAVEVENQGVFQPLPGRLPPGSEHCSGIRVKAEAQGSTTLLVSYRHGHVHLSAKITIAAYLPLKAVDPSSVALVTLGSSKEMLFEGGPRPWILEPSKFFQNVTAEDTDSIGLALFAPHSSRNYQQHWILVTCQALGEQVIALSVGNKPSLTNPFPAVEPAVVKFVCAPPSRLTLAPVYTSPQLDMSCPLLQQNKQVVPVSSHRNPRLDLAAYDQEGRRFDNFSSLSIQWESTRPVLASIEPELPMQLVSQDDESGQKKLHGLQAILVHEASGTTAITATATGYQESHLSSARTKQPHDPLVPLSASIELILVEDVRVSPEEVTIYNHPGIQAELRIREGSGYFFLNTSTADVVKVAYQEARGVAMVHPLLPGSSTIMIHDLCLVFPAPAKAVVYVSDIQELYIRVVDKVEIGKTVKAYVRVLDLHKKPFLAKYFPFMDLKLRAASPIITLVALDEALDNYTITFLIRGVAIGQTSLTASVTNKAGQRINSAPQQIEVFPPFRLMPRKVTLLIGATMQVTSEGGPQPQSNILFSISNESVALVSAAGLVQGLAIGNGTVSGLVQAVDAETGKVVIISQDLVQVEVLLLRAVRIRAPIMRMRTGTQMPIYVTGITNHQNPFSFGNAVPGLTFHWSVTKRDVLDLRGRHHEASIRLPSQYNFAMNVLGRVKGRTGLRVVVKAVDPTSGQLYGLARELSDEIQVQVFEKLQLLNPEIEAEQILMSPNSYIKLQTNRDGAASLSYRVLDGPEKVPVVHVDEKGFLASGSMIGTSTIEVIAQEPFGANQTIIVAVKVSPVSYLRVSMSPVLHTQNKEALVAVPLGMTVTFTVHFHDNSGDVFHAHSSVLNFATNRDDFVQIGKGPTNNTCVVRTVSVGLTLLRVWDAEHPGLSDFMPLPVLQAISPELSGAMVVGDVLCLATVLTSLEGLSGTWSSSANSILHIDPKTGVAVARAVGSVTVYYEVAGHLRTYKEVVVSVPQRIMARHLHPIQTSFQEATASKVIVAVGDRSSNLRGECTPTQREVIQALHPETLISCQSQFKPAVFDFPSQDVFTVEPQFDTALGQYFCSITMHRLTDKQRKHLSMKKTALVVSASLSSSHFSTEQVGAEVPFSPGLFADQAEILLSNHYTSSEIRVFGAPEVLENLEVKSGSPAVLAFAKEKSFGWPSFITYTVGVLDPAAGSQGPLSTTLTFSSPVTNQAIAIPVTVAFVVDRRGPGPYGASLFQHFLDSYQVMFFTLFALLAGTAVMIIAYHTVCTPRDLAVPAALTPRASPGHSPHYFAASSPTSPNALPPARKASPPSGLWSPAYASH

Assay [4] deals with T4, HeLa cell extract proteins (Homo sapiens, UniProt P07737).
T4 construct: endogenous in cells; host or cells: HeLa cell extract
T4 sequence (P07737 whole entry): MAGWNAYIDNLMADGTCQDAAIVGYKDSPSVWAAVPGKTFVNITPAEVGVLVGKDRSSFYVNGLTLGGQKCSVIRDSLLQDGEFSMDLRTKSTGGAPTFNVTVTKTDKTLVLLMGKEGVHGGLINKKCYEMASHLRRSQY

Assay [5] addresses T5, HeLa cell extract proteins (Homo sapiens, UniProt P35232).
T5 construct: endogenous in cells; host or cells: HeLa cell extract
T5 sequence (P35232 1-272): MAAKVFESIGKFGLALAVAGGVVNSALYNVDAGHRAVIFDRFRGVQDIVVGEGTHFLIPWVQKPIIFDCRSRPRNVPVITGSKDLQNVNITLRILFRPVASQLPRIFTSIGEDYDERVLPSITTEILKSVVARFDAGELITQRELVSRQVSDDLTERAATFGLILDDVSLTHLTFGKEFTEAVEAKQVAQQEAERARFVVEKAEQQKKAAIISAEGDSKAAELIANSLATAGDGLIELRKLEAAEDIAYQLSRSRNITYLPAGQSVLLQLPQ

In assay [6] the target is T6, HeLa cell extract proteins (Homo sapiens, UniProt P53999).
T6 construct: endogenous in cells; host or cells: HeLa cell extract

Assay [7] deals with T7, HeLa cell extract proteins (Homo sapiens, UniProt P0DMV8).
T7 construct: endogenous in cells; host or cells: HeLa cell extract
T7 sequence (P0DMV8 whole entry): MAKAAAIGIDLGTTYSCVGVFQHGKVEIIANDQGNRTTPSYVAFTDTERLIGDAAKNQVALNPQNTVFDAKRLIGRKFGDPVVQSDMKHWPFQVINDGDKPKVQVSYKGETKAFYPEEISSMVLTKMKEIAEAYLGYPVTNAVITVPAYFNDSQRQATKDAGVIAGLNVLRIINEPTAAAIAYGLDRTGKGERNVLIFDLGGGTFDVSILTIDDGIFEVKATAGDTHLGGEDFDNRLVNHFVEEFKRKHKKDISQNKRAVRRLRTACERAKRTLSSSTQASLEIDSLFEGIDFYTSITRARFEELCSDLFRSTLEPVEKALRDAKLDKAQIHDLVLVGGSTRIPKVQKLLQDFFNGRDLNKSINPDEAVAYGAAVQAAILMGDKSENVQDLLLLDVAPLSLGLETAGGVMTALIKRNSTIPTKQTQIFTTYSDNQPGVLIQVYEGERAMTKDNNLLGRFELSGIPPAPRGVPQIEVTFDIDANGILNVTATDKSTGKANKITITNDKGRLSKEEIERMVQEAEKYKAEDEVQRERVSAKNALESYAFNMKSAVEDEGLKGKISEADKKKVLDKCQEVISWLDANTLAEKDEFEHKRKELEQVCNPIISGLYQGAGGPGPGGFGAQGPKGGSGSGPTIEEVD

In assay [8] the target is T8, HeLa cell extract proteins (Homo sapiens, UniProt Q96JN8).
T8 construct: endogenous in cells; host or cells: HeLa cell extract
T8 sequence (Q96JN8 whole entry): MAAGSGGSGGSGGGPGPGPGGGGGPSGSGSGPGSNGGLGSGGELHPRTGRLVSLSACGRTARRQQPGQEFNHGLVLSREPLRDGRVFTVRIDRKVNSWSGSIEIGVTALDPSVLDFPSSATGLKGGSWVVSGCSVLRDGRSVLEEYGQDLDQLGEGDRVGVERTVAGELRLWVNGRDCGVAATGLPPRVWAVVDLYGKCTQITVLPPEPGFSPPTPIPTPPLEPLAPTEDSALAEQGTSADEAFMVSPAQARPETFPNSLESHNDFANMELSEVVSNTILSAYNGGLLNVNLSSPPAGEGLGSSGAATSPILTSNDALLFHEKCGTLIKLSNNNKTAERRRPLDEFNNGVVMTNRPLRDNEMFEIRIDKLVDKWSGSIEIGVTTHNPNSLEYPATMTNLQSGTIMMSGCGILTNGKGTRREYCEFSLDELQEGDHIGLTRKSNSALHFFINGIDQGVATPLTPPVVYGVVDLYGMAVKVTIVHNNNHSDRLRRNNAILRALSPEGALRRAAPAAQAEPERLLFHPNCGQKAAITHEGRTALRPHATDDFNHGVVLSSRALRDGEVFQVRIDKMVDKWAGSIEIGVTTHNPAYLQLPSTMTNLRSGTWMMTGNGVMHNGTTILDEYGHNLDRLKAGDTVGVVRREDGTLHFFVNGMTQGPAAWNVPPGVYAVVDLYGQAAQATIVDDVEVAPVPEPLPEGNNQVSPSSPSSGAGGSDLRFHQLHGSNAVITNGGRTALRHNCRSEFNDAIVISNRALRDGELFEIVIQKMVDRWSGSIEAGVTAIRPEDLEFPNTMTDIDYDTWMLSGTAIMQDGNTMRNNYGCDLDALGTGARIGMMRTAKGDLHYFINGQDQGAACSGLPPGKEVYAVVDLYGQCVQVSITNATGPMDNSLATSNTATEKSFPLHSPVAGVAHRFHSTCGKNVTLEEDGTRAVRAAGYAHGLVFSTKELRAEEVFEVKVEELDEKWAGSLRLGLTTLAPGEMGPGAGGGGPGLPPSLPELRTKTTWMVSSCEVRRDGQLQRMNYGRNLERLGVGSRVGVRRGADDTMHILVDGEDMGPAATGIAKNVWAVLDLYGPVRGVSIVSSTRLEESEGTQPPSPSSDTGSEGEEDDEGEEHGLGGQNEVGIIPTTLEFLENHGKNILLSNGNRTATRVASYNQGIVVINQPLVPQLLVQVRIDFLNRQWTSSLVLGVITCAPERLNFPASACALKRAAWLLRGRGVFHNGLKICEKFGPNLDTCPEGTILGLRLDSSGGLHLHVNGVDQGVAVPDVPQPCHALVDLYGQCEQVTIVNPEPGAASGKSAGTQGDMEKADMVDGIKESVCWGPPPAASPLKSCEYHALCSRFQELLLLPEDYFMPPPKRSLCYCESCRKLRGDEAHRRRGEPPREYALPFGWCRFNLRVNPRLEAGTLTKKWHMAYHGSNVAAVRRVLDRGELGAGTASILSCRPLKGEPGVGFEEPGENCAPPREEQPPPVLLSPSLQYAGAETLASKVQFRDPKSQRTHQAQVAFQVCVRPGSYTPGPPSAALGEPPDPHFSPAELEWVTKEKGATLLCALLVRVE

Assay [9] has as its target T9, HeLa cell extract proteins (Homo sapiens, UniProt O95373).
T9 construct: endogenous in cells; host or cells: HeLa cell extract

Assay [10] concerns the target T10, HeLa cell extract proteins (Homo sapiens, UniProt O60762).
T10 construct: endogenous in cells; host or cells: HeLa cell extract

Assay [11] concerns the target T11, HeLa cell extract proteins (Homo sapiens, UniProt Q96DG6).
T11 construct: endogenous in cells; host or cells: HeLa cell extract
T11 sequence (Q96DG6 1-245): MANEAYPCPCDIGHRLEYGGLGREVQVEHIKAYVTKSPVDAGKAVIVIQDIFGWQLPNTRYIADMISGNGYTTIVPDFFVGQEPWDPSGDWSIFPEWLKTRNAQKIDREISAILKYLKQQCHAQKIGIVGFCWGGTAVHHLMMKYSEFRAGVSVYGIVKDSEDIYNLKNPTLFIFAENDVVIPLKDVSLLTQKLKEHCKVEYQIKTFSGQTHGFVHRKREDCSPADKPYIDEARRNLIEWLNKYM

For assay [12], the target named is T12, HeLa cell extract proteins (Homo sapiens, UniProt P18206).
T12 construct: endogenous in cells; host or cells: HeLa cell extract
T12 sequence (P18206 1-1134): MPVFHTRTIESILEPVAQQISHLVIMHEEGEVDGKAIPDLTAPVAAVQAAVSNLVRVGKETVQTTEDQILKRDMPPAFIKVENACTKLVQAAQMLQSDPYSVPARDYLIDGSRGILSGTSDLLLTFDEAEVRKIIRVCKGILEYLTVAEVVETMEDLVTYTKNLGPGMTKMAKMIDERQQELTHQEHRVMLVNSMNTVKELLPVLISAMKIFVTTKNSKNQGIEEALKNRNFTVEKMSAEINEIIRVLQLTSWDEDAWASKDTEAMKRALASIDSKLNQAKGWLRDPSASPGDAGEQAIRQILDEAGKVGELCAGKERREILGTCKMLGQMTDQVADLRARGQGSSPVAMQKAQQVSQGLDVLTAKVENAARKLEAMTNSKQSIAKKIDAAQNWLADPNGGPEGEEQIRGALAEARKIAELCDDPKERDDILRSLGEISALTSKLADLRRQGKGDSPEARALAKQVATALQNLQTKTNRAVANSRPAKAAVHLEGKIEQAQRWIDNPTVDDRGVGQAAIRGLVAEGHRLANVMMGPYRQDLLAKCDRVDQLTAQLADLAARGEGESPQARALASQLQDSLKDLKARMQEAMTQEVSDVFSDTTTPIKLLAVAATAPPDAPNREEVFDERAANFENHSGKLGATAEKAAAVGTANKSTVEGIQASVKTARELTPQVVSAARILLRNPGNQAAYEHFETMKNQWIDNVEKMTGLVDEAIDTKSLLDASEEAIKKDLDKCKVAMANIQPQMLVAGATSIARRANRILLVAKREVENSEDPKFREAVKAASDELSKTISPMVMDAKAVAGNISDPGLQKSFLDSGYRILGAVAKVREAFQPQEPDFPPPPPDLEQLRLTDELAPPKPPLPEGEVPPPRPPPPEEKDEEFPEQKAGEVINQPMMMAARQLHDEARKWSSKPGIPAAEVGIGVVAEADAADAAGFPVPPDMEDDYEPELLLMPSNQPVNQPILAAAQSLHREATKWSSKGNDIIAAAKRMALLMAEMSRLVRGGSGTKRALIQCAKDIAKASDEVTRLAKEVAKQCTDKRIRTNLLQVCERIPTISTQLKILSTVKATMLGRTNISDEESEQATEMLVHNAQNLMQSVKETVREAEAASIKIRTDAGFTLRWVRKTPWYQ

Setting [13] is: HeLa, protein PFN1 (PROFILIN-1.).
[14] abbreviates: HeLa, protein IDI1 (ISOPENTENYL-DIPHOSPHATE DELTA ISOMERASE.).

T10 sequence (O60762 whole entry): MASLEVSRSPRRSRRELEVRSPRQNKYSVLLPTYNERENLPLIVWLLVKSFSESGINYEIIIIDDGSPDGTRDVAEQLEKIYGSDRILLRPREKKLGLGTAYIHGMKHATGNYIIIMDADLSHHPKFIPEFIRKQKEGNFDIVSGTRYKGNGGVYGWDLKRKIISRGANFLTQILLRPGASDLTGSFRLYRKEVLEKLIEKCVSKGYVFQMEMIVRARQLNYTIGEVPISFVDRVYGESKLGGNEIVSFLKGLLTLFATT

As to `Nc1nc2cccc(-c3ccccc3)c2n1Cc1ccc(Cl)c(Cl)c1` [compound 3], the “fold changes relative to vehicle control” value worked out at 1.13 in [1] (protein CCT2, HeLa); 0.88 fold in assay [2] (HeLa, protein IDI1 (ISOPENTENYL-D[…] ISOMERASE.)); 0.86 in [3] (captured protein NUP210, HeLa); 1.03 fold in assay [4] (setting [13]); 0.93 in [5] (protein PHB, HeLa); 1.13 in [6] (protein SUB1, HeLa). Also, the “fold changes relative to vehicle control” value was found to be 1 in assay [7] (protein HSPA1A, HeLa); 1.09 in [8] (protein KIAA1787, HeLa); 1.17 in assay [9] (protein IPO7, HeLa); 1.02 in assay [10] (captured protein DPM1, HeLa); 1.17 in assay [11] (protein CMBL, HeLa); 0.99 in assay [12] (protein VCL, HeLa).

For `NCCOCCOCC(=O)Nc1nc2ncc(CNc3ccc(C(=O)NC(CCC(=O)O)C(=O)O)cc3)nc2c(=O)[nH]1` (stereo not drawn) [compound 6], the “fold changes relative to vehicle control” value is reported as 1.23 in assay [1] (HeLa, protein CCT2); 1.2 in assay [2] (HeLa, protein IDI1); 1.07 in [3] (HeLa, captured protein NUP210); 1.47 in assay [4] (HeLa, protein PFN1); 0.99 in [5] (HeLa, protein PHB); 1.03 in assay [6] (HeLa, protein SUB1). The “fold changes relative to vehicle control” value in assay [7] (HeLa, captured protein HSPA1A) was found to be 1; in [8] (HeLa, protein KIAA1787), 1.11; in assay [9] (HeLa, protein IPO7), 0.98; in assay [10] (protein DPM1, HeLa), 1.1; in assay [11] (HeLa, protein CMBL), 1.03; in assay [12] (protein VCL, HeLa), 1.21.

Regarding `Nc1nc2[nH]cc(CCc3ccc(C(=O)N[C@@H](CCC(=O)O)C(=O)O)cc3)c2c(=O)[nH]1` [PTX, pemetrexed], the “fold changes relative to vehicle control” value in [1] is reported as 1.11; in assay [2], 1.03; in [3], 0.99; in assay [4] it was 1.43; in [5], 0.92; in assay [6], 1.08. Also, the “fold changes relative to vehicle control” value was 0.98 in assay [7]; 1.07 in assay [8]; 0.93 in [9]; 0.88 in assay [10]; 0.97 in [11]; 1.06 in [12].

For `Nc1nc2c(c(=O)[nH]1)N(C=O)C(CNc1ccc(C(=O)N[C@@H](CCC(=O)O)C(=O)O)cc1)CN2` (stereo partly drawn) [LEU, leucovorin], the “fold changes relative to vehicle control” value in assay [1] (HeLa, protein CCT2) was found to be 1.05; in [2] (HeLa, protein IDI1), 1.09; in [3] (HeLa, captured protein NUP210), 0.97; in assay [4] (HeLa, protein PFN1), 1.22; in [5] (HeLa, protein PHB), 0.95; in assay [6] (HeLa, protein SUB1) it was 0.7. Also, the “fold changes relative to vehicle control” value in assay [7] (HeLa, captured protein HSPA1A) came to 1.02; in assay [8] (HeLa, protein KIAA1787), 1.16; in assay [9] (HeLa, protein IPO7), 0.94; in assay [10] (protein DPM1, HeLa) it was 0.94; in assay [11] (HeLa, protein CMBL), 1.04; in assay [12] (protein VCL, HeLa), 0.98.

For `CCCCCCOc1ccc(Cc2cnc(N)nc2N)cc1` [compound 1], the “fold changes relative to vehicle control” value turned out to be 1.33 in assay [1] (protein CCT2, HeLa); 1.5 fold in [2] (setting [14]); 0.74 in assay [3] (captured protein NUP210, HeLa); 1.64 fold in [4] (setting [13]); 1.06 in assay [5] (protein PHB, HeLa); 0.91 in assay [6] (protein SUB1, HeLa). The “fold changes relative to vehicle control” value in assay [7] (protein HSPA1A, HeLa) turned out to be 0.97; in assay [8] (protein KIAA1787, HeLa), 1.03; in assay [9] (protein IPO7, HeLa) it was 0.93; in assay [10] (captured protein DPM1, HeLa) it was 0.89; in assay [11] (protein CMBL, HeLa), 1.08; in assay [12] (protein VCL, HeLa), 1.12.

`NCCCNc1ccc(C(=O)NC(CCC(=O)O)C(=O)O)cc1` (stereo not drawn) [compound 7]: the “fold changes relative to vehicle control” value in assay [1] (HeLa, protein CCT2) was 0.95; in assay [2] (HeLa, protein IDI1), 1.01; in assay [3] (HeLa, captured protein NUP210), 1.05; in assay [4] (HeLa, protein PFN1), 1.21; in [5] (HeLa, protein PHB) it was 0.96; in assay [6] (HeLa, protein SUB1), 0.87. Besides, the “fold changes relative to vehicle control” value in assay [7] (HeLa, captured protein HSPA1A) was 0.99; in assay [8] (HeLa, protein KIAA1787), 1.21; in [9] (HeLa, protein IPO7) it was 0.99; in assay [10] (protein DPM1, HeLa), 1.04; in assay [11] (HeLa, protein CMBL), 1.25; in assay [12] (protein VCL, HeLa), 0.96.

As for `CCCCCCOc1cccc(Cc2cnc(N)nc2N)c1` [compound 2], the “fold changes relative to vehicle control” value in assay [1] (protein CCT2, HeLa) is listed as 1.75; in assay [2] (setting [14]), 2.18 fold; in [3] (captured protein NUP210, HeLa), 0.98; in assay [4] (setting [13]), 2.32 fold; in assay [5] (protein PHB, HeLa), 0.99; in [6] (protein SUB1, HeLa), 0.99. For the same molecule, the “fold changes relative to vehicle control” value in [7] (protein HSPA1A, HeLa) stood at 1.09; in assay [8] (protein KIAA1787, HeLa), 0.98; in assay [9] (protein IPO7, HeLa), 1.09; in assay [10] (captured protein DPM1, HeLa) it was 0.84; in assay [11] (protein CMBL, HeLa) it was 1.38; in assay [12] (protein VCL, HeLa) it was 1.8.
